Source: PMC12746157, “Light-Regulated Agonists Spatiotemporally Activating the Vitamin D Receptor Mitigate Psoriasis-like Inflammation in Mice without Inducing Hypercalcemia” (ACS Central Science, 2025)

Key:
VDR = VDR (Homo sapiens, UniProt P11473); test: Luminescent proximity homogeneous assay (AlphaScreen): interaction of purified VDR, RxR and TRAP220 coactivator fragment; format: biochemical; details: after illumination (365 nm) for 3 min, mean ± SEM; for EC50: n >= 3, read-out: Activity (pEC50) (converted); for Emax: normalized to maximum response of LSN2148936 (100%)
Sequence of VDR (P11473 whole entry, the tested form may be a part): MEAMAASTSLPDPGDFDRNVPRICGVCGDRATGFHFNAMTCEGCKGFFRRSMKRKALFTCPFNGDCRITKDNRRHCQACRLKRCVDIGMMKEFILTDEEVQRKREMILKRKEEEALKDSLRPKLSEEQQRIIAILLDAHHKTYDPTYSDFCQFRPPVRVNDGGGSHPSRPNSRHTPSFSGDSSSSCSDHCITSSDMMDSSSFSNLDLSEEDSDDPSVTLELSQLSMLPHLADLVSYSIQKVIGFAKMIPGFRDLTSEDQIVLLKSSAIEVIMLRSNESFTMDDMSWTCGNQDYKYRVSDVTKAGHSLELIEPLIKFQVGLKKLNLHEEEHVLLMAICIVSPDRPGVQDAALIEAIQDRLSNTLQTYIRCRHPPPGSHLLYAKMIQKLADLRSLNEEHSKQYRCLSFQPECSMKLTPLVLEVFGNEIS
Sequence of VDR (P19793 whole entry partner, the tested form may be a part): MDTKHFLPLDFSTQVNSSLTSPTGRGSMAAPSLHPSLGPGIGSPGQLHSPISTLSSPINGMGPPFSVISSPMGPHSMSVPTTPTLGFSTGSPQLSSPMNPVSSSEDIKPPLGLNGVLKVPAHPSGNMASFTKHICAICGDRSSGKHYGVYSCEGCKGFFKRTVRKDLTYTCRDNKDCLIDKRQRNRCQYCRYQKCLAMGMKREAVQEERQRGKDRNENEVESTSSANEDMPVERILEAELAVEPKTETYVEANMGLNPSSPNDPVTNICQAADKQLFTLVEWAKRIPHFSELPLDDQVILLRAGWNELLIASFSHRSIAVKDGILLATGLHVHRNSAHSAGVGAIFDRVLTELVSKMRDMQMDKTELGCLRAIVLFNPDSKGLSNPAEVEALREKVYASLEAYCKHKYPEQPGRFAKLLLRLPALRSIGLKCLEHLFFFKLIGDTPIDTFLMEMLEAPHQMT
Sequence of VDR (Q15648 whole entry partner, the tested form may be a part): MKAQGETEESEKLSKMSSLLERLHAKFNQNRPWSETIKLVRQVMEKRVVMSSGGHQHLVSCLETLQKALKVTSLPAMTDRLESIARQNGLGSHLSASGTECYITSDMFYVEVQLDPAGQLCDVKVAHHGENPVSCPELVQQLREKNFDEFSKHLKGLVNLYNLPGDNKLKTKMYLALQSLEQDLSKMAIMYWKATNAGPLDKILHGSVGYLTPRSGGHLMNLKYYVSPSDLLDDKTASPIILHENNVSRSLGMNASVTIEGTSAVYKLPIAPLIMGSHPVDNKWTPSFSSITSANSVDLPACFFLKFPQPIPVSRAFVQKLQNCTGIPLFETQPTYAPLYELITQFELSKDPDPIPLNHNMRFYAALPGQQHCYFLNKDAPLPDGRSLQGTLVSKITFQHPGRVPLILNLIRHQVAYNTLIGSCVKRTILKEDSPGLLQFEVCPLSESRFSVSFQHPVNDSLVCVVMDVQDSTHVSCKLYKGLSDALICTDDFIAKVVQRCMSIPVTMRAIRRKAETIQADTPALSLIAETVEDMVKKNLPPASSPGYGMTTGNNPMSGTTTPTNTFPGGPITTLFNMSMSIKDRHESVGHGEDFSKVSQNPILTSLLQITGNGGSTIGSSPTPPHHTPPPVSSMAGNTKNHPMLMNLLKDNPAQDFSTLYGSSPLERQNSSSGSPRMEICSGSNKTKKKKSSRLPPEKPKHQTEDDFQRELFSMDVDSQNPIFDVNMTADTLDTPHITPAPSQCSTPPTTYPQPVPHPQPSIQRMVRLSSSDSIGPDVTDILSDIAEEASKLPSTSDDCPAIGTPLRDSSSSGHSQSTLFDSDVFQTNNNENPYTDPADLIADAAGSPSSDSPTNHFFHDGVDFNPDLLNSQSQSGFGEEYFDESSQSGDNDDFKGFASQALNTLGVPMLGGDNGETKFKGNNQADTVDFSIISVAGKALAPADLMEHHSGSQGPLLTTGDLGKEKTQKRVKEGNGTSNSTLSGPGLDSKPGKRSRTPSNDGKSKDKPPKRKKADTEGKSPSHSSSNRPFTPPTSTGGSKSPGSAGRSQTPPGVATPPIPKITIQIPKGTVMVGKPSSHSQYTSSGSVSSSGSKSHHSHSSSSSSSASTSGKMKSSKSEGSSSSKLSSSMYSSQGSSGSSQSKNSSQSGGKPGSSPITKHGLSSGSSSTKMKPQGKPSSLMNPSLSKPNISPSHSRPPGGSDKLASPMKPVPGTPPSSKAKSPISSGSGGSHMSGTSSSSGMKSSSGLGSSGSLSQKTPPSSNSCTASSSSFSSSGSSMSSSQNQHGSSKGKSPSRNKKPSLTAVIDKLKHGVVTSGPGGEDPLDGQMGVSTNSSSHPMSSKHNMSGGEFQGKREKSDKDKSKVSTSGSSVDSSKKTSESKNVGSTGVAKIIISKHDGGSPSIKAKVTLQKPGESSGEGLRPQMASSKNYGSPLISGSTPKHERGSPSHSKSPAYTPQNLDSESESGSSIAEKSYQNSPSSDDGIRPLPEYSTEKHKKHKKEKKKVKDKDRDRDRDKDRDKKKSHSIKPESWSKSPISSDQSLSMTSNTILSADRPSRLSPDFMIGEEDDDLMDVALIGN
Protocol: The activity of all molecules was evaluated using a luminescent proximity homogeneous assay to study interactions between purified VDR, RxR and a fragment of the transcriptional coactivator TRAP220 (Supporting Information). This method allowed us to monitor the interaction between TRAP220 and the activated VDR-RxR heterodimer, which is of mechanistic and physiological significance. Both the activation of VDR and the VDR-RxR heterodimer formation are necessary to promote the whole complex association. This system efficiently includes conformational events of the receptor upon activation that go beyond a simple binding measurement. […]
The activity of all molecules was evaluated using an in-vitro luminescent proximity homogeneous assay by using the Alphascreen technology (Cat No. 6760619R, Perkin Elmer, now Revvity). In a transparent 96-well preplate, 10X concentrations of the compounds were prepared in assay buffer (0.1% bovine serum albumin, 2 mM 1,4-dithiothreitol, 25 mM HEPES and 100 mM NaCl; pH 7.3). LSN2148936 was used as positive control. Purified histidine-tagged VDR (44 µM), flag-RxRa (5.7 µM), biotin tagged TRAP220 transcriptional coactivator (500 µM), and the donor and acceptor beads from the AlphaScreen kit (2 µL/mL each), were diluted in assay buffer. In the dark, 6 µL/well of each test compound were pipetted on a white, shallow 96-well ProxiPlateTM […]
(Perkin Elmer, now Revvity, Cat.No. 6006290) in duplicate. Immediately, 54 µL of the protein solution were added and the plate was covered and incubated for 30 min at room temperature in the dark. Meanwhile, the plate with the 10X dilutions was illuminated at 365 nm for 3 min in a 96-well DED array plate (LEDA Teleopto), to allow the photoconversion of the molecules to their cis configuration. The illuminated compounds were mixed with the protein solution and incubated as described above for the plate in the dark. After the incubation time, the counts of both, the dark and illuminated plates, were measured in a Tecan Spark 20M Multimode plate reader with defined settings (excitation: 680 nm, emission: 520-620 nm, excitation time: 100ms, integration time: 300 ms). Biotinylated-His6 peptide (PerkinElmer) was used as a quality control reagent for AlphaScreen® assays and to evaluate compound interaction with the method. The raw data were normalized to the effect of the buffer (0%) and the maximum response obtained with LSN2148936 (100%). Dose-response curves and EC50 values were calculated with Graphpad software. Each experiment was performed in triplicate, with 2 replicates per plate.
4. Hydrogen/deuterium exchange coupled to mass spectrometry (HDX-MS)
The HDX-MS experiments were performed with an in-house automated modular system interfaced with an Orbitrap Exploris 480 mass spectrometer.1 Two inter-day experiments were conducted: one in the dark (first day) and one illuminated with 365 nm light (second day). Sample preparation and on-exchange reactions were performed on opaque plates (VWR® Real-Time […]
mm, Part Nº BC5226) light source was positioned above the Tecan system used for sample preparation. The distance between the UV light and the opaque plates was 80 cm. The 365 nm light illuminated the sample preparation process and the on-exchange reaction on the second day.
A 10 µM VDR-LBD protein stock solution was prepared in 20 mM HEPES buffer (with 150 mM NaCl, 10 mM D-L Methionine and 5 mM DTT) at pH 7.5. The compound 11b was prepared at 10 mM in DMSO. The protein: compound-complex (1:10 molar ratio) was pre-incubated for 1h before the first on-exchange reaction. The HDX reaction was initiated by a 5-fold dilution of the protein stock solution, in the presence and absence of compound 11b, in the corresponding Deuterated buffer at room temperature. Samples were prepared in parallel with three replicates of […]
time point, HDX reactions were quenched with a solution of 3 M Urea and 1% TFA (pH 2.5) followed by online proteolysis with an in-house Pepsin immobilized column and desalting […]

[1] = Proportions of cis and trans at the photostationary state in DMSO from absorbance spectra (Ernst Fischer method); format: physicochemical
Protocol: 2. Photochemical characterization.
A 50 µM solution of each compound in DMSO was dispensed into a transparent 96-well plate (200 µL per well). The absorption spectra were recorded from 300 to 600 nm with 2 nm fixed intervals using a Tecan Spark 20M Multimode microplate reader. Initial measurements were performed in the dark, followed by spectra acquired immediately after each 3 min period of light irradiation at different wavelengths using 96-well LED array plates (LEDA Teleopto). Theoretical absorbance spectra corresponding to the pure cis isomer (100%) of each compound were calculated in order to obtain the theoretical percentage of cis isomer at each wavelength, according to the method described by Ernst Fischer (1967). […]
Table S6. Proportions of cis and trans at the photostationary state in DMSO. […]

EC50 (VDR) [nM] | Emax (VDR) [%] | %cis at the photostationary state ([1]; 365 nm) | %trans at the photostationary state ([1]; 365 nm) | %cis at the photostationary state ([1]; 380 nm) | %trans at the photostationary state ([1]; 380 nm) | %cis at the photostationary state ([1]; 405 nm) | %trans at the photostationary state ([1]; 405 nm) | %cis at the photostationary state ([1]; 420 nm) | %trans at the photostationary state ([1]; 420 nm) | %cis at the photostationary state ([1]; 470 nm) | %trans at the photostationary state ([1]; 470 nm) | %cis at the photostationary state ([1]; 500 nm) | %trans at the photostationary state ([1]; 500 nm) | %cis at the photostationary state ([1]; 530 nm) | %trans at the photostationary state ([1]; 530 nm) | SMILES
339 | 31 ± 3.13 | 97,06% | 2,94% | 95,61% | 4,39% | 63,64% | 36,36% | 60,45% | 39,55% | 33,06% | 66,94% | 34,03% | 65,97% | 30,20% | 69,80% | Cc1cc(/N=N/c2cccc(-c3ccc(CO)cc3)c2)ccc1OCC(O)C(C)(C)C (stereo not drawn) [Compound 12a]
794 | 44 ± 5.37 | 96,19% | 3,81% | 95,15% | 4,85% | 62,30% | 37,70% | 59,96% | 40,04% | 29,61% | 70,39% | 25,15% | 74,85% | 19,72% | 80,28% | Cc1cc(OCC(O)C(C)(C)C)ccc1/N=N/c1cccc(-c2ccc(CO)cc2)c1 (stereo not drawn) [Compound 12b]
95.5 | 61 ± 2.01 | 96,92% | 3,08% | 95,77% | 4,23% | 63,77% | 36,23% | 60,13% | 39,87% | 32,14% | 67,86% | 33,18% | 66,82% | 29,47% | 70,53% | Cc1cc(OCC(O)C(C)(C)C)ccc1/N=N/c1cccc(-c2ccc(CO)cc2C)c1 (stereo not drawn) [Compound 12d]
